Assay results as given in patent US10093630B2, “Pyrazole compounds and methods of making and using same” (ABIDE THERAPEUTICS, INC., priority 2014, dated 2018).

What was measured:
Test in all cases: In vitro competitive activity-based protein profiling (gel-based, FP-Rh or HT-01 probe)
Assay type in all cases: biochemical
ABHD6 = target: T1, ABHD6 (Mus musculus, UniProt Q8R2Y0); conditions: for inhibition at 1 µM: 1 μM inhibitor, read-out: % Inhibition at 1 μM, C = ABHD6; for inhibition at 10 µM: 10 μM inhibitor, read-out: % Inhibition at 10 μM, C = ABHD6
T1 construct: Proteomes (mouse brain membrane fraction or cell lysates); from tissue; host or cells: mouse brain membrane fraction (or cell lysates, not specified)
T1 sequence (Q8R2Y0 1-336): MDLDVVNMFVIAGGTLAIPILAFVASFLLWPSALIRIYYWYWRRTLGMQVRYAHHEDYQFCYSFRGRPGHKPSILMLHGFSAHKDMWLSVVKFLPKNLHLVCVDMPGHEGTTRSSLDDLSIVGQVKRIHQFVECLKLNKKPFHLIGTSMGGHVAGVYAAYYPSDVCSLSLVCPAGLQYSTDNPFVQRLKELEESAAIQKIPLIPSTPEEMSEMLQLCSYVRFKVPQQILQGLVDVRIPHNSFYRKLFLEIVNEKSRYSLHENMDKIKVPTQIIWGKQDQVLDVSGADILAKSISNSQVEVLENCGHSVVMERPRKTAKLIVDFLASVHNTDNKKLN
Protocol: (§1) In Vitro Competitive Activity-Based Protein Profiling.
(§2) Proteomes (mouse brain membrane fraction or cell lysates) (50 μL, 1.0 mg/mL total protein concentration) were preincubated with varying concentrations of inhibitors at 37° C. After 30 min, FP-Rh or HT-01 ([…], 50 μM in DMSO) was added and the mixture was incubated for another 30 min at 37° C. Reactions were quenched with SDS loading buffer (15 μL—4×) and run on SDS-PAGE. Following gel imaging, serine hydrolase activity was determined by measuring fluorescent intensity of gel bands corresponding to MAGL, ABHD6, FAAH, and PLA2G7 using ImageJ 1.43u software.

PLA2G7 = target: T2, PLA2G7 (Mus musculus, UniProt Q60963); conditions: for inhibition at 1 µM: 1 μM inhibitor, read-out: % Inhibition at 1 μM, D = PLA2G7; for inhibition at 10 µM: 10 μM inhibitor, read-out: % Inhibition at 10 μM, D = PLA2G7
T2 construct: Proteomes (mouse brain membrane fraction or cell lysates); from tissue; host or cells: mouse brain membrane fraction (or cell lysates, not specified)
T2 sequence (Q60963 22-440): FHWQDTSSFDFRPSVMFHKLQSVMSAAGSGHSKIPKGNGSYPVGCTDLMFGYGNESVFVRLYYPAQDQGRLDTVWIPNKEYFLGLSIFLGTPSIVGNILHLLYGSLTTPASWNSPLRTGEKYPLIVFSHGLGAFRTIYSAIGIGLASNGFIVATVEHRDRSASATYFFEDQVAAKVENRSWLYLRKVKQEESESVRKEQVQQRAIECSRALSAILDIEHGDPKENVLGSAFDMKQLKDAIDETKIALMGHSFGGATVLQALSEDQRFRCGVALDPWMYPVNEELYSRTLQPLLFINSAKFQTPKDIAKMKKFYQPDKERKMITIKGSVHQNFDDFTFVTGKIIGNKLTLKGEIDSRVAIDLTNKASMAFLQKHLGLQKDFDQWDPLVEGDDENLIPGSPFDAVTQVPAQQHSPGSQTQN
Protocol: as §1, §2

MAGL = target: T3, MAGL (Mus musculus, UniProt O35678); conditions: for inhibition at 1 µM: 1 μM inhibitor; for inhibition at 10 µM: 10 μM inhibitor
T3 construct: Proteomes (mouse brain membrane fraction or cell lysates); from tissue; host or cells: mouse brain membrane fraction (or cell lysates, not specified)
T3 sequence (O35678 1-303): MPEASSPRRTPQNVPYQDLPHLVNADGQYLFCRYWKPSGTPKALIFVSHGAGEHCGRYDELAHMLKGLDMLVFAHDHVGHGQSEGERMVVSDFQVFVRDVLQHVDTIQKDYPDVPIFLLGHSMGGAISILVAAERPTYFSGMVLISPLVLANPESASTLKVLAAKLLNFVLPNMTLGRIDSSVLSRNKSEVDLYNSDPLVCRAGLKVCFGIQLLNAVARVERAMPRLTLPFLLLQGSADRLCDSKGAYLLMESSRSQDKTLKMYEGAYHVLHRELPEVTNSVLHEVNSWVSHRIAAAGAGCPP
Protocol: as §1, §2

FAAH = target: T4, FAAH (Mus musculus, UniProt O08914); conditions: for inhibition at 1 µM: 1 μM inhibitor, read-out: % Inhibition at 1 μM, B = FAAH; for inhibition at 10 µM: 10 μM inhibitor, read-out: % Inhibition at 10 μM, B = FAAH
T4 construct: Proteomes (mouse brain membrane fraction or cell lysates); from tissue; host or cells: mouse brain membrane fraction (or cell lysates, not specified)
T4 sequence (O08914 1-579): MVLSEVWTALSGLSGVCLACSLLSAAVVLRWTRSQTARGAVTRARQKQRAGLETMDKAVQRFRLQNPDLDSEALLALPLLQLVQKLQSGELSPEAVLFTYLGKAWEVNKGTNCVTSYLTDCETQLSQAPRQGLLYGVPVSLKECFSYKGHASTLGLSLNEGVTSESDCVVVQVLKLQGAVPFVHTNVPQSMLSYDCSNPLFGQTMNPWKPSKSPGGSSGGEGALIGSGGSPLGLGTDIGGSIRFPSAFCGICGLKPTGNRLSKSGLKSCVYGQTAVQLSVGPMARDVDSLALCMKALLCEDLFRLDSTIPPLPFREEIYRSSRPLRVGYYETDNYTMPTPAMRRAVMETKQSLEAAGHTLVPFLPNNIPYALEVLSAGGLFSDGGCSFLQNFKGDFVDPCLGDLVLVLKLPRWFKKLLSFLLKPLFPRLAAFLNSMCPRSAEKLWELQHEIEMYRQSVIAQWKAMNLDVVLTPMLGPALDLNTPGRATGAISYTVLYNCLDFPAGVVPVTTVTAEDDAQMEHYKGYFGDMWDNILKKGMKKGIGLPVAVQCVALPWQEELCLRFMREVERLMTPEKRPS
Protocol: as §1, §2

inhibition at 1 µM (ABHD6) [%]	inhibition at 10 µM (ABHD6) [%]	inhibition at 1 µM (PLA2G7) [%]	inhibition at 10 µM (PLA2G7) [%]	inhibition at 1 µM (MAGL) [%]	inhibition at 10 µM (MAGL) [%]	inhibition at 1 µM (FAAH) [%]	inhibition at 10 µM (FAAH) [%]	IC50 (ABHD6; mouse brain membrane fraction or cell lysates, 30 min preincubation at 37° C., read-out: Mouse (IC50 value, nM) ABHD6) [nM]	IC50 (MAGL; mouse brain membrane fraction or cell lysates, 30 min preincubation at 37° C., read-out: Mouse (IC50 value, nM) MAGL) [nM]	IC50 (FAAH; mouse brain membrane fraction or cell lysates, 30 min preincubation at 37° C., read-out: Mouse (IC50 value, nM) FAAH) [nM]	Structure (SMILES)
> 75	> 75	> 75	> 75	> 75	> 75	> 75	> 75	–	–	–	N#Cc1cnn(C(=O)N2CCN(Cc3ccc(Oc4ccccc4)cc3)CC2)c1 [Example 18, 1-(4-(4-Phenoxybenzyl)piperazine-1-carbonyl)-1H-pyrazole-4-carbonitrile]
< 25	> 75	< 25	< 25	25 to 75	> 75	> 75	> 75	–	–	–	O=C(N1CCN(Cc2ccc(OCc3ccccc3)cc2)CC1)n1cccn1 [Example 19, (4-(4-(Benzyloxy)benzyl)piperazin-1-yl)(1H-pyrazol-1-yl)methanone]
25 to 75	> 75	< 25	25 to 75	25 to 75	> 75	< 25	> 75	–	–	–	Cc1cnn(C(=O)N2CCN(Cc3ccc(OCc4ccccc4)cc3)CC2)c1 [Example 20, (4-(4-(Benzyloxy)benzyl)piperazin-1-yl)(4-methyl-1H-pyrazol-1-yl)methanone]
> 75	> 75	< 25	> 75	> 75	> 75	> 75	> 75	< 100	< 100	< 100	N#Cc1cnn(C(=O)N2CCN(Cc3ccc(OCc4ccccc4)cc3)CC2)c1 [Example 21, 1-(4-(4-(Benzyloxy)benzyl)piperazine-1-carbonyl)-1H-pyrazole-4-carbonitrile]
< 25	> 75	< 25	< 25	> 75	> 75	< 25	> 75	–	–	–	O=C(N1CCN(Cc2ccc(-c3ccccc3)cc2)CC1)n1cccn1 [Example 22, (4-([1,1′-Biphenyl]-4-ylmethyl)piperazin-1-yl)(1H-pyrazol-1-yl)methanone]
25 to 75	> 75	< 25	> 75	> 75	> 75	< 25	25 to 75	–	–	–	Cc1cnn(C(=O)N2CCN(Cc3ccc(-c4ccccc4)cc3)CC2)c1 [Example 23, (4-([1,1′-Biphenyl]-4-ylmethyl)piperazin-1-yl)(4-methyl-1H-pyrazol-1-yl)methanone]
> 75	> 75	> 75	> 75	> 75	> 75	> 75	> 75	–	–	–	N#Cc1cnn(C(=O)N2CCN(Cc3ccc(-c4ccccc4)cc3)CC2)c1 [Example 24, 1-(4-([1,1′-Biphenyl]-4-ylmethyl)piperazine-1-carbonyl)-1H-pyrazole-4-carbonitrile]
< 25	25 to 75	< 25	< 25	< 25	< 25	< 25	< 25	–	–	–	CC(C)(C)OC(=O)N1CCCN(C(=O)n2cccn2)CC1 [Example 25, tert-Butyl 4-(1H-pyrazole-1-carbonyl)-1,4-diazepane-1-carboxylate]
25 to 75	> 75	< 25	< 25	< 25	25 to 75	25 to 75	> 75	–	–	–	Cc1cnn(C(=O)N2CCCN(C(=O)OC(C)(C)C)CC2)c1 [Example 26, tert-Butyl 4-(4-methyl-1H-pyrazole-1-carbonyl)-1,4-diazepane-1-carboxylate]
> 75	> 75	> 75	> 75	> 75	> 75	> 75	> 75	–	–	–	CC(C)(C)OC(=O)N1CCCN(C(=O)n2cc(C#N)cn2)CC1 [Example 27, tert-Butyl 4-(4-cyano-1H-pyrazole-1-carbonyl)-1,4-diazepane-1-carboxylate]
< 25	25 to 75	< 25	< 25	< 25	25 to 75	< 25	25 to 75	–	–	–	CN(CCN(C)C(=O)n1cccn1)C(=O)OC(C)(C)C [Example 28, tert-Butyl methyl(2-(N-methyl-1H-pyrazole-1-carboxamido)ethyl)carbamate]
< 25	> 75	< 25	< 25	< 25	25 to 75	< 25	25 to 75	–	–	–	Cc1cnn(C(=O)N(C)CCN(C)C(=O)OC(C)(C)C)c1 [Example 29, tert-Butyl (2-(N,4-dimethyl-1H-pyrazole-1-carboxamido)ethyl)(methyl)carbamate]
–	< 25	–	< 25	–	< 25	–	< 25	–	–	–	O=C(NCCCc1ccccc1)n1cccn1 [Example 31, N-(3-Phenylpropyl)-1H-pyrazole-1-carboxamide]
–	< 25	–	< 25	–	< 25	–	< 25	–	–	–	Cc1cnn(C(=O)NCCCc2ccccc2)c1 [Example 32, 4-Methyl-N-(3-phenylpropyl)-1H-pyrazole-1-carboxamide]
< 25	< 25	< 25	< 25	< 25	< 25	< 25	> 75	–	–	–	N#Cc1cnn(C(=O)NCCCc2ccccc2)c1 [Example 33, 4-Cyano-N-(3-phenylpropyl)-1H-pyrazole-1-carboxamide]
